Assay results as given in PubChem BioAssay AID1963437 (Molecular Pharmacology Branch, DTP, NCI, 2024).

System: OVCAR-8 complex spheroid, growth inhibition
Assay: Anticancer human tumor OVCAR-8 cell line growth inhibition [Asc];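 note: spheroids exposed to agents for 7 days before readout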;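 for viability, T/C: percent viability relative to DMSO vehicle wells taken as 100%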
Conditions: for IC50: curve of first compound; for viability, T/C: stronger effect = lower value
How it was run: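 Complex spheroids combining tumor cells with HUVEC endothelial cells and human MSCs, at 37 degrees C, 5% CO2; agents tested alone or combined, half-log dilutions from at or near clinical Cmax, or 10 microM if Cmax unknown.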

Compound COc1c(OCCCN2CCOCC2)ccc2c3n(c(=NC(=O)c4cnc(N)nc4)nc12)CCN3 + CCN1C(C(=O)NC23CCC(C(=O)O)(CC2)CC3)C(c2cccc(Cl)c2F)C2(C(=O)Nc3cc(Cl)ccc32)C12CCCCC2 has an IC50 (second compound 0.00949 µM) greater than 1 µM, an IC50 (second compound 0.03 µM) greater than 1 µM and an IC50 (second compound 0.0949 µM) greater than 1 µM. The IC50 (second compound 0.3 µM) was greater than 1 µM, the IC50 (second compound 0.949 µM) was greater than 1 µM and the IC50 (second compound 3 µM) was greater than 1 µM. It also gave a viability, T/C (second compound 0.00949 µM, first compound 0.00316 µM) of 94.7%, a viability, T/C (second compound 0.00949 µM, first compound 0.01 µM) of 92.2% and a viability, T/C (second compound 0.00949 µM, first compound 0.0316 µM) of 113%. It also gave a viability, T/C (second compound 0.00949 µM, first compound 0.1 µM) of 170%, a viability, T/C (second compound 0.00949 µM, first compound 0.316 µM) of 140% and a viability, T/C (second compound 0.00949 µM, first compound 1 µM) of 97.1%. It also gave a viability, T/C (second compound 0.03 µM, first compound 0.00316 µM) of 81.5%, a viability, T/C (second compound 0.03 µM, first compound 0.01 µM) of 101% and a viability, T/C (second compound 0.03 µM, first compound 0.0316 µM) of 121%. For the same compound, the viability, T/C (second compound 0.03 µM, first compound 0.1 µM) was 134%, the viability, T/C (second compound 0.03 µM, first compound 0.316 µM) was 133% and the viability, T/C (second compound 0.03 µM, first compound 1 µM) was 91.2%. It also gave a viability, T/C (second compound 0.0949 µM, first compound 0.00316 µM) of 104%, a viability, T/C (second compound 0.0949 µM, first compound 0.01 µM) of 99% and a viability, T/C (second compound 0.0949 µM, first compound 0.0316 µM) of 117%. It also gave a viability, T/C (second compound 0.0949 µM, first compound 0.1 µM) of 165%, a viability, T/C (second compound 0.0949 µM, first compound 0.316 µM) of 154% and a viability, T/C (second compound 0.0949 µM, first compound 1 µM) of 92.4%. It also gave a viability, T/C (second compound 0.3 µM, first compound 0.00316 µM) of 103%, a viability, T/C (second compound 0.3 µM, first compound 0.01 µM) of 103% and a viability, T/C (second compound 0.3 µM, first compound 0.0316 µM) of 108%. It also gave a viability, T/C (second compound 0.3 µM, first compound 0.1 µM) of 153%, a viability, T/C (second compound 0.3 µM, first compound 0.316 µM) of 133% and a viability, T/C (second compound 0.3 µM, first compound 1 µM) of 80%. The viability, T/C (second compound 0.949 µM, first compound 0.00316 µM) was 93.9%, the viability, T/C (second compound 0.949 µM, first compound 0.01 µM) was 89.8% and the viability, T/C (second compound 0.949 µM, first compound 0.0316 µM) was 146%. It also gave a viability, T/C (second compound 0.949 µM, first compound 0.1 µM) of 172%, a viability, T/C (second compound 0.949 µM, first compound 0.316 µM) of 144% and a viability, T/C (second compound 0.949 µM, first compound 1 µM) of 80.9%. For the same compound, the viability, T/C (second compound 3 µM, first compound 0.00316 µM) was 111%, the viability, T/C (second compound 3 µM, first compound 0.01 µM) was 115% and the viability, T/C (second compound 3 µM, first compound 0.0316 µM) was 133%. It also gave a viability, T/C (second compound 3 µM, first compound 0.1 µM) of 153%, a viability, T/C (second compound 3 µM, first compound 0.316 µM) of 126% and a viability, T/C (second compound 3 µM, first compound 1 µM) of 90.2%.
C#Cc1c(F)ccc2cc(O)cc(-c3ncc4c(N5CC6CCC(C5)N6)nc(OCC56CCCN5CC(F)C6)nc4c3F)c12 (centres undefined) + Cc1c(S(C)(=O)=O)c(-c2cc(F)cc(N3CCN(c4ccc(NS(=O)(=O)c5ccc(NC(CCN6CCC(C(=O)OCCCP(=O)(O)O)CC6)CSc6ccccc6)c(S(=O)(=O)C(F)(F)F)c5)cc4)CC3)c2)c(-c2ccc(Cl)cc2)n1C(C)C was tested, and the IC50 (second compound 0.0316 µM) was greater than 10 µM, the IC50 (second compound 0.1 µM) was greater than 10 µM and the IC50 (second compound 0.316 µM) was greater than 10 µM. The IC50 (second compound 1 µM) was greater than 10 µM, the IC50 (second compound 3.16 µM) was greater than 10 µM and the IC50 (second compound 10 µM) was greater than 10 µM. The viability, T/C (second compound 0.0316 µM, first compound 0.0316 µM) was 86.8%, the viability, T/C (second compound 0.0316 µM, first compound 0.1 µM) was 97.1% and the viability, T/C (second compound 0.0316 µM, first compound 0.316 µM) was 87.3%. For the same compound, the viability, T/C (second compound 0.0316 µM, first compound 1 µM) was 76.6%, the viability, T/C (second compound 0.0316 µM, first compound 3.16 µM) was 84.9% and the viability, T/C (second compound 0.0316 µM, first compound 10 µM) was 99.8%. For the same compound, the viability, T/C (second compound 0.1 µM, first compound 0.0316 µM) was 85.2%, the viability, T/C (second compound 0.1 µM, first compound 0.1 µM) was 72.8% and the viability, T/C (second compound 0.1 µM, first compound 0.316 µM) was 90.1%. For the same compound, the viability, T/C (second compound 0.1 µM, first compound 1 µM) was 85.5%, the viability, T/C (second compound 0.1 µM, first compound 3.16 µM) was 90.4% and the viability, T/C (second compound 0.1 µM, first compound 10 µM) was 84.7%. The viability, T/C (second compound 0.316 µM, first compound 0.0316 µM) was 78.2%, the viability, T/C (second compound 0.316 µM, first compound 0.1 µM) was 102% and the viability, T/C (second compound 0.316 µM, first compound 0.316 µM) was 95.4%. The viability, T/C (second compound 0.316 µM, first compound 1 µM) was 105%, the viability, T/C (second compound 0.316 µM, first compound 3.16 µM) was 94% and the viability, T/C (second compound 0.316 µM, first compound 10 µM) was 107%. For the same compound, the viability, T/C (second compound 1 µM, first compound 0.0316 µM) was 95.1%, the viability, T/C (second compound 1 µM, first compound 0.1 µM) was 79% and the viability, T/C (second compound 1 µM, first compound 0.316 µM) was 84.6%. The viability, T/C (second compound 1 µM, first compound 1 µM) was 111%, the viability, T/C (second compound 1 µM, first compound 3.16 µM) was 106% and the viability, T/C (second compound 1 µM, first compound 10 µM) was 116%. The viability, T/C (second compound 3.16 µM, first compound 0.0316 µM) was 85.1%, the viability, T/C (second compound 3.16 µM, first compound 0.1 µM) was 83.2% and the viability, T/C (second compound 3.16 µM, first compound 0.316 µM) was 89.8%. For the same compound, the viability, T/C (second compound 3.16 µM, first compound 1 µM) was 92.4%, the viability, T/C (second compound 3.16 µM, first compound 3.16 µM) was 102% and the viability, T/C (second compound 3.16 µM, first compound 10 µM) was 108%. The viability, T/C (second compound 10 µM, first compound 0.0316 µM) was 91.5%, the viability, T/C (second compound 10 µM, first compound 0.1 µM) was 92.2% and the viability, T/C (second compound 10 µM, first compound 0.316 µM) was 81.1%. The viability, T/C (second compound 10 µM, first compound 1 µM) was 113%, the viability, T/C (second compound 10 µM, first compound 3.16 µM) was 94.2% and the viability, T/C (second compound 10 µM, first compound 10 µM) was 122%.
